Data taken from PubChem BioAssay (NCI).
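Method: 48-hour compound exposure of cells in 96-well plates, five concentrations, linear interpolation of endpoints. GI50 marks 50% less growth. TGI: total growth inhibition.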

Assays:
Assay in all cases: NCI-60 cell line screen, 48 h
MDA-N = test system: MDA-N
KM12 colon = test system: KM12 colon
T-47D breast = test system: T-47D breast
786-0 renal = test system: 786-0 renal
TK-10 renal = test system: TK-10 renal
HCT-15 colon = test system: HCT-15 colon
NCI-H460 lung = test system: NCI-H460 lung
M14 melanoma = test system: M14 melanoma
NCI-H23 lung = test system: NCI-H23 lung
NCI/ADR-RES ovarian = test system: NCI/ADR-RES ovarian

Structure (SMILES) | TGI (MDA-N) | TGI (KM12 colon) | TGI (T-47D breast) | TGI (786-0 renal) | TGI (TK-10 renal) | TGI (HCT-15 colon) | TGI (NCI-H460 lung) | TGI (M14 melanoma) | TGI (NCI-H23 lung) | TGI (NCI/ADR-RES ovarian) | GI50 (KM12 colon) | GI50 (TK-10 renal) | GI50 (HCT-15 colon) | GI50 (NCI-H460 lung) | GI50 (NCI-H23 lung) | GI50 (NCI/ADR-RES ovarian)
OC(CCN1CCN(CCOC(c2ccc(F)cc2)c2ccc(F)cc2)CC1)c1ccc(Br)cc1 (stereo not drawn) | 6.93 µM | 8.07 µM | 13.7 µM | 7.07 µM | 20.9 µM | 8.25 µM | 7.37 µM | 3.86 µM | 18.9 µM | 7.67 µM | – | – | – | – | – | –
COc1ccc2c(c1)-c1nc(=S)n(CCN(C)C)c3ccc([N+](=O)[O-])c(c13)N2 | 2.19 µM | 6.27 µM | 12.5 µM | 1.8 µM | 16.5 µM | 4.76 µM | 1.71 µM | 7.43 µM | 17.9 µM | 3.61 µM | – | – | – | – | – | –
Cc1ccc2nc(Nc3ccccc3C)c(Nc3ccccc3C)nc2c1 | 67.1 µM | 45.8 µM | > 100 µM | > 100 µM | > 92.7 µM | 58.7 µM | 45 µM | 81.8 µM | 45.6 µM | > 100 µM | – | – | – | – | – | –
Fc1cccc(F)c1C1SCc2nc3cc(Cl)ccc3n21 (stereo not drawn) | > 100 µM | 72.9 µM | > 100 µM | > 71.1 µM | > 100 µM | > 100 µM | > 100 µM | > 100 µM | > 100 µM | > 100 µM | – | – | – | – | – | –
O=C1c2cc3c(cc2-c2c1c1cc(F)c(F)cc1c(=O)n2C[C@H](O)CO)OCO3 | – | > 100 µM | – | – | 2.11 µM | 1.74 µM | 0.141 µM | – | 0.613 µM | 0.468 µM | 0.123 µM | 0.335 µM | 0.19 µM | 0.031 µM | 0.0611 µM | 0.0396 µM
CN(C)C(=O)/N=C1\SC(=Nc2ccccc2)C(=Nc2ccccc2)N1c1ccc([N+](=O)[O-])cc1 | > 100 µM | > 100 µM | > 100 µM | – | – | > 100 µM | > 100 µM | > 100 µM | > 100 µM | > 100 µM | – | – | – | – | – | –
Fc1ccc(OCc2ccc3nc(-c4ccccc4)c(Cl)nc3c2)cc1 | > 100 µM | > 100 µM | > 100 µM | 56.9 µM | 90.1 µM | > 100 µM | > 100 µM | > 100 µM | > 100 µM | > 100 µM | – | – | – | – | – | –
CSc1ncnc2c1cnn2Cc1cn(COCC(O)CO)nn1 (stereo not drawn) | > 100 µM | > 100 µM | > 100 µM | > 100 µM | > 100 µM | > 100 µM | – | > 100 µM | > 100 µM | > 100 µM | – | – | – | – | – | –
Cn1c2ccccc2c2c3c(=O)[nH][nH]c(=O)c3c3c4ccccc4n(C)c3c21 | > 100 µM | > 100 µM | > 100 µM | > 100 µM | > 100 µM | > 100 µM | > 100 µM | > 100 µM | > 100 µM | > 100 µM | – | – | – | – | – | –
Cc1nn(C(=O)c2ccccc2O)c2c1C(c1ccc([N+](=O)[O-])cc1)SC(N)=N2 (stereo not drawn) | > 10 µM | > 10 µM | > 10 µM | > 10 µM | > 10 µM | > 10 µM | > 10 µM | > 10 µM | > 10 µM | > 10 µM | – | – | – | – | – | –
C[C@@](Br)(C(=O)O)[C@H](Br)C(=O)O | > 100 µM | > 100 µM | > 100 µM | > 100 µM | > 100 µM | > 100 µM | > 100 µM | > 100 µM | > 100 µM | > 100 µM | – | – | – | – | – | –
COc1ccc(C(=C2C(=O)OC(=O)C2=C(C)C)c2ccc(OC)cc2)cc1 | > 100 µM | > 100 µM | > 100 µM | > 100 µM | > 100 µM | > 100 µM | > 100 µM | > 100 µM | > 100 µM | > 100 µM | – | – | – | – | – | –
CCOC(=O)c1c(-c2ccc(OC)cc2)c(C#N)c(=S)n(C2OC(CO)C(O)C(O)C2O)c1C (stereo not drawn) | > 100 µM | > 100 µM | > 100 µM | > 100 µM | > 100 µM | > 100 µM | – | > 100 µM | > 100 µM | > 100 µM | – | – | – | – | – | –
CC(C)NC(=O)OCc1c(COC(=O)NC(C)C)n(C)c2c1ccc1cc(Cl)c(Cl)cc12 | 26.5 µM | – | 18.8 µM | 20.5 µM | 19.4 µM | 28.7 µM | 16.3 µM | 29.2 µM | 31.1 µM | 36.8 µM | – | – | – | – | – | –
O/N=C/[C@H]1COC2(CCCCC2)O1 | > 100 µM | > 100 µM | – | > 100 µM | > 100 µM | > 100 µM | – | > 100 µM | > 100 µM | > 100 µM | – | – | – | – | – | –
CC(C)(C)C#CI1OC(=O)c2ccccc21 | 23.4 µM | 18.4 µM | 14.7 µM | 11.5 µM | 15.8 µM | 11.6 µM | 11.9 µM | 15.3 µM | 15.3 µM | > 45.4 µM | – | – | – | – | – | –
CCOP(=O)(CC1OC(CO)C(O)C1O)OCC (stereo not drawn) | > 100 µM | > 100 µM | > 100 µM | > 100 µM | > 100 µM | > 100 µM | > 100 µM | > 100 µM | > 64.1 µM | – | – | – | – | – | – | –
O=c1ccn([C@@H]2C=C(CO)[C@@H](O)[C@H]2O)c(=O)[nH]1 | – | > 625 µM | – | – | – | > 625 µM | > 625 µM | – | > 625 µM | > 625 µM | – | – | – | – | – | –
Clc1sc(Cl)c2c1[C@H](Br)C[C@@H]2Cl | > 100 µM | > 100 µM | > 100 µM | 99.1 µM | 87.7 µM | 40.7 µM | > 100 µM | 54.5 µM | 43.2 µM | 44.2 µM | – | – | – | – | – | –
Cc1ccc(S(=O)(=O)N2CCc3cc(O)c([N+](=O)[O-])cc32)cc1 | > 100 µM | > 100 µM | > 100 µM | > 100 µM | > 100 µM | > 100 µM | – | > 100 µM | > 100 µM | > 100 µM | – | – | – | – | – | –
CCC(C)C(NC(=O)C(CCCC[N+](=N)N)NC(=O)C(CCCC[N+](=N)N)NC(=O)c1ccc(OC)cc1)C(=O)NC(CCCC[N+](=N)N)C(=O)N1CCCC1C(=O)NC(CCCCN)C(=O)NC(CC(C)C)C(N)=O (stereo not drawn) | > 100 µM | > 100 µM | > 100 µM | > 100 µM | > 100 µM | > 100 µM | > 100 µM | > 100 µM | > 100 µM | > 100 µM | – | – | – | – | – | –
